Test results taken from patent US20140005054A1, “COMPLEX RNA COMPOSITION OF BODILY FLUIDS” (INSTITUTE FOR SYSTEMS BIOLOGY, priority 2012, published 2014).

Key:
[1] = test system: mouse dicer deficient (DCR −/−) fibroblast cell line; assay: Transfection of synthetic exogenous RNA into fibroblasts, effect on transcriptome (microarray, pathway enrichment of down-regulated genes); type: cell-based; conditions: 10 nM synthetic RNA, 24 hours; for effects on the cellular transcriptome (gene expression profiles): microarray; for Affected pathways: pathways enriched among down-regulated genes
From the text: We transfected several synthetic, double-stranded RNA molecules selected from observed exogenous miRNA sequences and some highly abundant exogenous sequences (bacterial rRNAs) that have potential to form pre-miRNA-like secondary structures (FIG. 7) into a mouse fibroblast cell line.
The mouse dicer deficient (DCR −/−) fibroblast cell line was generated from a conditional cre and floxed Dicer allele transgenic mouse available from Jax (located on the web at jaxmice.jax.org/strain/006001.html) kindly provided by Dr. Jacques Peschon. Part of the RNase III domain encoded in the exon 23 of dicer gene was deleted following cre excision. DCR −/− cells were maintained in Dulbecco's modified Eagle's medium with high glucose. The media was supplemented with 10% FBS, 1% non-essential amino acid, 1% GlutaMAX™. The cells were routinely incubated at 37° C. in a humidified atmosphere with 5% CO2.
Lipofectamine™ RNAiMAX was purchased from Invitrogen (Life Technologies, Carlsbad, Calif.). Custom designed exogenous RNA used in transfection was obtained from Ambion (Life Technologies, Carlsbad, Calif.). DCR −/− cells were seeded at a density of 1×10^5 cells in 6-well tissue culture plates 24 h prior to transfect with 10 nM of synthetic RNAs. Cells exposed to transfection reagents only were used as control. After 24 hours in the transfection media, the cells were harvested for RNA isolation and the transfection efficiency was validated with qPCR.
Effects of exogenous RNAs on transcriptome were assessed by using the Agilent mouse 4×44K microarray (Agilent, Santa Clara, Calif.). Total RNAs were isolated with an miRNeasy® column (Qiagen, Valencia, Calif.), and both Cy3 and Cy5-labeled cRNA samples were prepared with two color labeling kit (Agilent Technologies, Santa Clara, Calif.) and then hybridized at 65° C. for 17 h. Signal intensity was calculated from digitized images captured by a scanner from Agilent (Santa Clara, Calif.), and data analysis was performed by using GeneSpring GX software (Agilent Technologies, Santa Clara, Calif.).
The expression profiles of a number of genes in the cells were affected by some of the exogenous RNA sequences. We verified the changes in levels of some of these affected genes' mRNA by QPCR (FIG. 8).

mouse [2] = test system: mouse
mouse [3] = conditions: in vivo
From the text: An acetaminophen overdose mouse model for drug-induced liver injury was employed to determine the effect of liver injury on the RNA spectrum.

[4] = Stability of RNA in plasma after enzyme or detergent treatment, qPCR; type: in vitro ADME, human
Procedure: The plasma samples were treated with various conditions (indicated on the top of the figure) prior to RNA isolation. The Y-axis represents the relative concentration change compared to no treatment determined by qPCR. The data represents the average changes from 9 plasma samples. The black bars represent the changes of an endogenous miRNA, miR-16, the open bars are exogenous miRNA, miR-263 from mosquitos and the gray bars are the 16S rRNA from Pseudomonas putida.
To explore the stability of exogenous RNA in plasma, we treated the plasma with RNase A from Fermentas™ (Thermo Scientific™, Wilmington, Del.) at a concentration at 1 μg/ml, DNase I (Fermentas™, Thermo Scientific™, Wilmington, Del.) at a concentration of 1 unit/ml, protease K (Fermentas™, Thermo Scientific™, Wilmington, Del.) at a concentration of 0.05 mg/ml, 0.1% Triton™ X 100, or protease K for 20 minutes followed by additional RNase A at 1 μg/ml after heat inactivation of protease K at 70° C. for 10 minutes prior for RNA isolation.
Adding additional RNase caused less reduction compared to protease followed by RNase treatments.

Molecule: Bantam: synthetic RNA UGAGAUCAUUGUGAAAGCUGAUU, Bantam miRNA from house fly (synthetic double-stranded RNA, chemistry not given here; listed as Musca domestica)
- effects on the cellular transcriptome (gene expression profiles) [1]: did not produce any significant effects
- Affected pathways [1]: No enriched pathway

Molecule: CC(=O)Nc1ccc(O)cc1 [acetaminophen]
- histopathology of liver tissues (mouse [2]; acetaminophen overdose): typical zoon 3 hepatocyte death
- histopathology of kidney tissues (mouse [2]; mouse, in vivo): renal tubular injury
- level of albumin transcript in plasma (mouse [3]): significantly increased
- level of apolipoprotein A2 (apoA2) transcript in plasma (mouse [3]): significantly increased
- level of transferrin transcript in plasma (mouse [3]): significantly increased
- number of transcripts in plasma affected (mouse [3]): Several hundred
- time course of albumin transcript level in plasma (mouse [3]): spiked after 3 hours and decreased over a 24 hour period
- time course of apoA2 transcript level in plasma (mouse [3]): spiked after 3 hours and decreased over a 24 hour period
- time course of transferrin transcript level in plasma (mouse [3]): increased to a lesser extent but held reasonably steady over a 24-hour period

Molecule: miR-263: exogenous miRNA AAUGGCACUGGAAGAAUUCACGG, miR-263a from mosquito; synthetic form transfected, native form measured in plasma (synthetic double-stranded RNA, chemistry not given here; listed as Culex pipiens)
- effects on the cellular transcriptome (gene expression profiles) [1]: did not produce any significant effects
- Affected pathways [1]: No enriched pathway
- level of RNA in plasma after treatment ([4]; 0.1% Triton X-100 prior to RNA isolation): reduced significantly
- level of RNA in plasma after treatment ([4]; RNase A 1 μg/ml prior to RNA isolation): reduced significantly
- level of RNA in plasma after treatment ([4]; protease K 0.05 mg/ml prior to RNA isolation): reduced significantly
- level of RNA in plasma after treatment ([4]; protease K for 20 minutes followed by RNase A 1 μg/ml): reduced significantly
